# Data taken from patent US7186699B2, “Method for treating cancer by vector-mediated delivery of one or more anti-angiogenic or pro-apoptotic genes” (Cell Genesys, Inc., priority 2003, dated 2007).
# Where a SMILES comes first, the peptide text is derived from it. The star is where a group is joined. Cbz = O=C(OCc1ccccc1)*; CH2F = FC*
# Key:
# Colo-205 cells [1] = assay: DNA fragmentation (apoptosis) ELISA in Colo-205 cells; format: cell-based, human
# Description: Apoptosis, e.g. […]
# DNA fragmentation is quantitated by a photometric enzyme-immunoassay (Cell Death Detection ELISA Assay, Roche) for measuring cytoplasmic histone-associated nucleosomes according to the manufacturer's protocols. % Apoptosis is defined as relative increase in DNA fragmentation in treated vs. control cells calculated by [O.D. Treated−background]/[Maximal O.D.−Background].
# Caspase 3 = Caspase 3 protease activity in Colo-205 cell lysates (DEVD-pNA); format: cell-based, human
# Description: (§1) In certain assays, cells are pre-treated with 20 uM of the pan-caspase inhibitor, ZVAD-fmk (RnD Systems), 1 hr prior to stimulation with TRAIL or control agents.
# Caspase 8 = Caspase 8 protease activity in Colo-205 cell lysates (IETD-pNA); format: cell-based, human
# Description: as §1
# [2] = tested on: HT29 colorectal tumor cells; assay: Chemosensitization of HT29 colon cancer cells to TRAIL; format: cell-based, human
# Description: FIGS. 17A–C show augmentation of sTRAIL-induced HT29 colon cancer cytotoxicity by chemotherapy sensitization.
# (§2) Tumor cells are plated at 1e4 cells per well in 96-well plates and incubated overnight at 37 C after which time the cells are left untreated or treated with the indicated sub-toxic doses of chemotherapeutic agents. After 24 hr, the cells are left untreated, or treated with sub-toxic doses of recombinant human TRAIL or AAV-produced TRAIL for an additional 24, 48 or 72 hr. Cell viability is evaluated using a tetrazolium-salt (WST-8) based proliferation assay (Cell Counting Kit-8, Dojindo Laboratories, Japan) according to the manufacturer's recommendations. % Cytotoxicity/Growth Inhibition was defined as [1-(OD treated−background)/(OD untreated−background)×100].
# (§3) The specificity of TRAIL-induced cell death was tested in a variety of tumor and normal cells. […] The combinatorial cytotoxic effects of TRAIL and chemotherapy were tested in a panel of tumor cells.
# [3] = tested on: colorectal tumor cell lines (HT29, HCT-116, Colo-205); assay: Combination of sTRAIL and COX inhibitors in colorectal tumor cell lines; format: cell-based, human; conditions: combined with high doses of SC-560 and Celebrex
# Description: as §3
# Colo-205 cells [4] = assay: Colo-205 growth inhibition/viability, WST-8 tetrazolium assay; format: cell-based, human; conditions: 24, 48 and 72 hr treatment, FIG. 10B/10C
# Description: Cell proliferation was evaluated using a WST-8-based tetrazolium salt viability assay using the formulas: % Viability=[OD (sTRAIL) treated−background]/[OD (GFP) untreated−background]×100 and % Growth Inhibition=[1-(OD treated−background)/OD untreated−background)]×100.
# human tumor cell lines = assay: Sensitivity of tumor cell lines to TRAIL, WST-8 cytotoxicity assay; format: cell-based; conditions: human tumor cell lines from diverse tissues; 24 hr; FIG. 14
# Description: Briefly, 1e4 tumor cells (ATCC), or normal primary cells (BioWhittaker), are seeded in one well of a 96-well titer plate and incubated overnight at 37° C. Cells are then treated with the test or control agents for 24, 48 or 72 hr. Following treatment, cell viability is evaluated using a tetrazolium-salt (WST-8) based proliferation assay (Cell Counting Kit-8, Dojindo Laboratories, Japan) according to the manufacturer's recommendations. % Cytotoxicity/Growth inhibition is defined as [1-(OD treated−background)/(OD untreated−background)×100].
# as §3
# [5] = tested on: A549 lung carcinoma, U87MG glioma, MCF7 breast carcinoma, PC-3 prostate carcinoma; assay: Chemosensitization of tumor cells to TRAIL; format: cell-based, human; conditions: A549+cisplatin, U87MG+etoposide, MCF-7+doxorubicin, PC-3+doxorubicin; 24 hr pre-treatment with sub-toxic doses, then 24 hr TRAIL
# Description: FIGS. 16A–D show augmentation of sTRAIL-induced tumor cell cytotoxicity by chemotherapy sensitization 1 e4 tumor cells were pretreated with genotoxic agents for 24 hr to sensitize, then subsequently treated with sTRAIL for 24 hr. Viability was measured by WST-8 tetrazolium salt assay after 24 hr sTRAIL treatment and % Growth inhibition=[1-(OD treated−background)/(OD untreated−background)×100].
# as §2, §3
# [6] = tested on: VEGF induced vessel sprouting; assay: Chick chorioallantoic membrane (CAM) assay; format: in vivo; conditions: 25 ng VEGF with 0.1, 1 and 10 ng protein from conditioned media; 72 hr
# Description: FIG. 4 illustrates the results of experiments that show PF4 and PF4(DLR) reduce VEGF stimulated angiogenesis in the chick chorioallantoic membrane (CAM) assay. Hyrdocortisone-containing filter disks were soaked with 25 ng of VEGF together with 0.1 ng, 1 ng and 10 ng of PF-4 or PF-4(DLR) derived from conditioned media. AAV-null, 293 cell supernatant and an internal PF-4 protein standard, PF4-Blast, were included in the assay as separate controls. Filter disks were aseptically placed on top of the chorioallantoic membranes of 11 day chick embryos. 72 hours after incubation the CAMs were surgically removed, fixed and the number of vessel sprouts determined by stereomicroscopy.
# Hydrocortisone-containing filter discs are soaked with 25 ng Vascular Endothelium Growth Factor (VEGF) (R&D Systems, Minneapolis, Minn.) together with the indicated doses of conditioned media from control or vector transduced cells, and aseptically placed on top of the chorioallantoic membranes of 11 day old chick embryos. After 72 hr incubation, the CAMs are surgically removed, fixed and the discs are analyzed for VEGF-induced angiogenesis by stereomicroscopy. The mean number (+/−SEM) of branch points occurring in the new blood vessel sprouts beneath the applied filter disc from the treated CAMs is enumerated from multiple (n=8–10) samples. […]
# [7] = Colo-205 cells pre-incubated with 20 uM inhibitor
# [8] = Colo-205 cells, 4 hr incubation
molecule,measurement,setting,value
COC(=O)C[C@H](NC(=O)[C@H](C)NC(=O)[C@@H](NC(=O)OCc1ccccc1)C(C)C)C(=O)CF [ZVAD-fmk] (Cbz-Val-Ala-Asp(OMe)-CH2F),Effect on sTRAIL induced DNA fragmentation,"Colo-205 cells [1]; Colo-205 cells pre-incubated with increasing amounts of inhibitor, 6 hr after sTRAIL treatment",prevents sTRAIL induced DNA fragmentation in a dose-dependent manner
same,Effect on TRAIL-induced caspase 3 protease activity,Caspase 3; [7],blocking of TRAIL-induced caspase protease activity
same,Effect on TRAIL-induced caspase 8 protease activity,Caspase 8; [7],blocking of TRAIL-induced caspase protease activity
TRAIL,Cytotoxic effect combined with chemotherapy,"[2]; combined with sub-toxic doses of doxorubicin, cisplatin, or camptothecin",synergistic cytotoxic effect
same,Cell death with TRAIL alone,[2]; sub-optimal doses of TRAIL,refractory to cell death
same,Cytotoxic activity combined with cyclo-oxygenase-2 inhibitors,[3],synergistic cytotoxic activity
recombinant human TRAIL: recombinant human TRAIL purchased from a commercial vendor (RnD Systems),50% effective dose of Colo-205 growth inhibition,Colo-205 cells [4],approximately 0.5 ng/ml
same,50% effective dose (ED50) for induction of apoptosis (DNA fragmentation),"Colo-205 cells [1]; Colo-205 cells, 6 hr incubation (sTRAIL 6, 16 and 24 hr), FIG. 11",approximately 1 ng/ml
same,Induction of caspase 3 protease activity,Caspase 3; [8],Dose-dependent induction
same,Induction of caspase 8 protease activity,Caspase 8; [8],Dose-dependent induction
same,Cytotoxicity in tumor cell lines,human tumor cell lines,cytotoxicity was observed in a wide spectrum of human tumor cell lines
same,Cytotoxic effect combined with chemotherapy,[5],augmented cytotoxic effect
"PF-4: platelet factor-4 from conditioned media of transfected 293 cells (SEQ ID NO:7) (protein, platelet factor-4) MSSAAGFCASRPGLLFLGLLLLPLVVAFASAEAEEDGDLQCLCVKTTSQVRPRHITSLEVIKAGPHCPTAQLIATLKNGRKICLDLQAPLYKKIIKKLLES",VEGF induced vessel sprouting,[6],blockage of VEGF induced vessel sprouting
"PF-4(DLR): platelet factor-4 with the DLR mutation (SEQ ID NO:9) from conditioned media (protein, platelet factor-4 with DLR mutation) MSSAAGFCASRPGLLFLGLLLLPLVVAFASAEAEEDGDLQCLCVKTTSQVRPRHITSLEVIKAGPHCPTAQLIATLKNGRKICLDLRAPLYKKIIKKLLES",VEGF induced vessel sprouting,[6],blockage of VEGF induced vessel sprouting
